Reference: US12595269B2, “Morpholine-like monoamine releasers” (Solvonis Therapeutics Ireland Holdings Limited, priority 2022, dated 2026)

Test system: MDCKII cells
Experiment: Apparent permeability (Papp AB) in MDCKII cells
Type: in vitro ADME, Canine
Conditions: MDCKII cells, pH 7.4
Method: Methods and Procedure: This study was conducted in compliance with previously described procedures to assure data integrity and adherence to GLP regulations. The experiments described herein were designed to evaluate the apparent permeability (Papp) of test compounds at pH 7.4. Additionally, the MDCKII-MDR1 cell line (Madin-Darby Canine Kidney clone II cell line heterologously expressing the human P-glycoprotein transporter) and mock cell line MDCKII were used to determine whether a compound acted as a P-gp substrate, in the absence and in the presence of the potent P-gp inhibitor. Test control items (digoxin, metoprolol, and atenolol) and control P-gp inhibitor (GF120918) stock solution were prepared in DMSO. Bidirectional assays (Apical to Basolateral [AB] and Basolateral to Apical [BA]) were run, in both the absence and presence of P-gp inhibitor GF120918 in MDCKII-MDR1 and mock cell line MDCKII, using as transport buffer HBSSH at a pH of 7.4 (n=3).
Compounds were tested at a single concentration (i.e. at 3 or 10 μM) at one time point (i.e. 60 min). Alternative concentrations or time-points may also be investigated. As reference compounds, digoxin (P-gp substrate), atenolol (low permeable compound) and metoprolol (high permeable compound) were included at a single concentration (e.g., 10 or 25 μM) and at single time point (e.g., 60 min). Digoxin transport was evaluated in two directions (apical-to-basolateral [AB] and basolateral-to-apical [BA]) in the absence and presence of GF120918 or in mock cells, MDCKII (n=3). Atenolol and metoprolol were only tested in the AB direction in absence of GF120918 or in mock cells, MDCKII (n=3). The integrity of the cell monolayer was evaluated after the permeability experiment using the paracellular permeability marker Lucifer yellow (LY) in the apical to basolateral direction in each well.
MDCKII or MDCKII-MDRI cells cultivated using DMEM (high glucose, GlutaMAX™ supplemented with pyruvate, 10% FBS HI and Pen/Strep) and seeded onto microporous PET (Polyethylene Terephthalate) membranes in HTS 96-Multiwell Insert plates at density of ˜175,000-245,000 cells/cm^2 (25000-35000 cells/well; 50 μL/well) in DMEM medium and incubated for 3-4 days at 37° C.-5% CO2. Medium was changed a day before the experiment.
Stock solutions of test items were prepared in DMSO at a concentration of 5 or 10 mM and stored at −20° C. until use. The potent P-gp inhibitor, GF120918 (stock solution 10 mM) and the reference controls digoxin, atenolol, metoprolol (stock solutions 3 or 10 mM) were prepared in DMSO and stored at −20° C. until use.
Donor working solutions of test items and reference controls will be prepared at a concentration of 10 or 25 μM, diluting the stock solutions in HBSSH. Receiver working solutions contained transport buffer only. […]
MDCKII and MDCKII-MDR1 cells were preincubated (37° C., 15 to 30 minutes) in receiver working solutions containing transport buffer on apical (A) and basolateral (B) sides. Following pre-incubation, test items and control items (digoxin) transport were measured in two directions (apical to basolateral [AB]) and basolateral to apical [BA]), and these directions were performed in triplicate sets of wells, in both the absence and presence of […] GF120918 or mock MDCKII cells. […] Transport of permeability reference controls, atenolol and metoprolol, were measured in one direction (apical to basolateral [AB]) (n=3). […]

CNC(C)Cc1ccc2c(c1)OCO2 (stereo not shown) [MDMA, reference compound]
Permeability Classification: high permeability
